Experimental data reported in ChEMBL document CHEMBL4765450, “The components and activities analysis of a novel anticoagulant candidate dHG-5” (Eur J Med Chem, 2020).
The source made the active and inactive calls. The rule behind the calls is not given here.

How the values were obtained:
[1] = target: Coagulation factor IX/VIII (Homo sapiens, UniProt P00451+P00740); test: Inhibition of human citrated plasma iXase (factor 8a-factor 9a complex) preincubated for 2 mins followed by factor 10 addition and measured after 1 min by FXa chromogenic substrate SXa-11 based assay; format: protein-complex assay
Sequence of Coagulation factor IX/VIII (P00451 20-759 limits assumed): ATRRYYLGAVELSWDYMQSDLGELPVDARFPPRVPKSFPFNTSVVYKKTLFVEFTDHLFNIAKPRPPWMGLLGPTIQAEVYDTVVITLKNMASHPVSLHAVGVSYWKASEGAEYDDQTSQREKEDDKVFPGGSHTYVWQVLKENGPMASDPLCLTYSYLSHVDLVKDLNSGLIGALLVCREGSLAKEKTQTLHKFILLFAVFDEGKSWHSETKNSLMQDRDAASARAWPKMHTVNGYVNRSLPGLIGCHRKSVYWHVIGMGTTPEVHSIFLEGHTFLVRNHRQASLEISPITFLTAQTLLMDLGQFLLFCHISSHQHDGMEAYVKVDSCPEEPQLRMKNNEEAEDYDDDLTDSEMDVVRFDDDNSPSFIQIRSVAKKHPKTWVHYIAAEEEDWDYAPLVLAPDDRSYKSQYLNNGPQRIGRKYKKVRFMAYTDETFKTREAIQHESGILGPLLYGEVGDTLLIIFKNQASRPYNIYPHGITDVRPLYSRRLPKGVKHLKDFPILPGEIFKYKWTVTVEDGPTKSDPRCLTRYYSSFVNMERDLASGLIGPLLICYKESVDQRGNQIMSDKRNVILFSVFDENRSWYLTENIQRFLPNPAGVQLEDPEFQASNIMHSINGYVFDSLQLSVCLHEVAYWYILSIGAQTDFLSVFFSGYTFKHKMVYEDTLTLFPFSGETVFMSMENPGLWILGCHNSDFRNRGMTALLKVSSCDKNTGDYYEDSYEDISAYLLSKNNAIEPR
Sequence of Coagulation factor IX/VIII (P00451 1668-2351 limits assumed): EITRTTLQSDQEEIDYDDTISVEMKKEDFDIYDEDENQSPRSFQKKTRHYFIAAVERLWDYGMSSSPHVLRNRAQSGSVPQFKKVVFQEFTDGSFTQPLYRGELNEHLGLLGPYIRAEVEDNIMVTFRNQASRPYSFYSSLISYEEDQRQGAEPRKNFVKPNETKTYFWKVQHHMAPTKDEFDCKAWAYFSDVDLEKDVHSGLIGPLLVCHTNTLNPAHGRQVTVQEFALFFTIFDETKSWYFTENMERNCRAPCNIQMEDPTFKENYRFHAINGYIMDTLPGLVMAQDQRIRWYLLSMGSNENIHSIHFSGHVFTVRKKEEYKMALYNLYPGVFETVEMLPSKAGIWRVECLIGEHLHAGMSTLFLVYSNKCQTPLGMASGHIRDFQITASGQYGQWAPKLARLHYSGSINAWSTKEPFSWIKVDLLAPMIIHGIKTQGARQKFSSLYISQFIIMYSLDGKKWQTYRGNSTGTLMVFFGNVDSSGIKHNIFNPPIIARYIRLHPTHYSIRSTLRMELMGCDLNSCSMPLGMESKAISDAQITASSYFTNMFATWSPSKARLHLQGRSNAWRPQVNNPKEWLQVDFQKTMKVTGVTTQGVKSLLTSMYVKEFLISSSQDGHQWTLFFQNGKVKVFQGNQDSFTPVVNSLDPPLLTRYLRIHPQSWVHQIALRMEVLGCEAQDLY
Sequence of Coagulation factor IX/VIII (P00740 47-191 limits assumed): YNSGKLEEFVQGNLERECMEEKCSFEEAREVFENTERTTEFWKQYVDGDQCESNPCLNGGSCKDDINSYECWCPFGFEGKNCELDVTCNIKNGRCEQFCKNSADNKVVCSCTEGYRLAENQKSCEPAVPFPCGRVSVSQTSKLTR
Sequence of Coagulation factor IX/VIII (P00740 227-461 limits assumed): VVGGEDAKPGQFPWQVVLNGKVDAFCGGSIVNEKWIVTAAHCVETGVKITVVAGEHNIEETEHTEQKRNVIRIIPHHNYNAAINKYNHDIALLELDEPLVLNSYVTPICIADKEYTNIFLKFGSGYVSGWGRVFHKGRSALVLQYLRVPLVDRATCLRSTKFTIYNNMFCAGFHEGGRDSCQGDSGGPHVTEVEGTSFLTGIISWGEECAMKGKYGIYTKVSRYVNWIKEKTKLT

Coagulation factor IX [2] = target: T1, Coagulation factor IX (Homo sapiens, UniProt P00740); test: Inhibition of factor 9a (unknown origin) binding to immobilized biotinylated oHG-11 by biolayer interferometry
T1 sequence (P00740 47-191 limits assumed): as the sequence (P00740 47-191 limits assumed) above
T1 sequence (P00740 227-461 limits assumed): as the sequence (P00740 227-461 limits assumed) above

[3] = target: Prothrombin (Homo sapiens) (UniProt P00734); test: Inhibition of factor 2a (unknown origin) at IC50 preincubated for 1 min followed by chromogenic substrate addition and measured for 2 mins; settings: time 3.0 min
[4] = target: T2, Coagulation factor VII (Homo sapiens) (UniProt P08709); test: Inhibition of factor 7a (unknown origin) at IC50 using pefachrome factor VIIa as substrate preincubated for 1 min followed by chromogenic substrate addition and measured for 2 mins; settings: time 3.0 min
T2 sequence (whole entry): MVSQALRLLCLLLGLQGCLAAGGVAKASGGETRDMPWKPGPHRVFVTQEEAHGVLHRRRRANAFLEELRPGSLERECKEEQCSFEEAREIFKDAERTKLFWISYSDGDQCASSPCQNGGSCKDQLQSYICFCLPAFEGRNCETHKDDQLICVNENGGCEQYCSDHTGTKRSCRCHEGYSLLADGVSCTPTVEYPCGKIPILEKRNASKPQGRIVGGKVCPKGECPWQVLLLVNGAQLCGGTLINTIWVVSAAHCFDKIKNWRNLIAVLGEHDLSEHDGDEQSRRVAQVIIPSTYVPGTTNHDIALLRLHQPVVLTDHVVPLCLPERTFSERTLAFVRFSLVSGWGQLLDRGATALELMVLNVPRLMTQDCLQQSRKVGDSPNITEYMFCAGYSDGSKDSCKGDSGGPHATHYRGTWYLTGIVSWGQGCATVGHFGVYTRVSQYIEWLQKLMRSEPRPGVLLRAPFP

[5] = target: Coagulation factor X (Homo sapiens) (UniProt P00742); test: Inhibition of factor 10a (unknown origin) at IC50 preincubated for 1 min followed by chromogenic substrate addition and measured for 2 mins; settings: time 3.0 min
Sequence of Coagulation factor X (Homo sapiens) (P00742 41-179 limits assumed): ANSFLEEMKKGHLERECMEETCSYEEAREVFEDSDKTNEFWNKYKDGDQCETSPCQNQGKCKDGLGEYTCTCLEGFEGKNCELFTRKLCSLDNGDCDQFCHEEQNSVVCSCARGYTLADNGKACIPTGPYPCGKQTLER
Sequence of Coagulation factor X (Homo sapiens) (P00742 235-488 limits assumed): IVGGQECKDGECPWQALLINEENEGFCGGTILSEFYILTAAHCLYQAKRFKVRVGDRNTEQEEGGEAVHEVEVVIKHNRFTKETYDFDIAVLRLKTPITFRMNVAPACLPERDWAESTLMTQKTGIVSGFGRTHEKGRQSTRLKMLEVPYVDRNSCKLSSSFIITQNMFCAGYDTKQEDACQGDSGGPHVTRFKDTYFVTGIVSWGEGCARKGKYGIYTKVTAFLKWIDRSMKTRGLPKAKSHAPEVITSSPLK

[6] = target: Coagulation factor XI (Homo sapiens) (UniProt P03951); test: Inhibition of factor 11a (unknown origin) at IC50 using S-2366 as substrate preincubated for 1 min followed by chromogenic substrate addition and measured for 2 mins; settings: time 3.0 min
Sequence of Coagulation factor XI (Homo sapiens) (P03951 19-387 limits assumed): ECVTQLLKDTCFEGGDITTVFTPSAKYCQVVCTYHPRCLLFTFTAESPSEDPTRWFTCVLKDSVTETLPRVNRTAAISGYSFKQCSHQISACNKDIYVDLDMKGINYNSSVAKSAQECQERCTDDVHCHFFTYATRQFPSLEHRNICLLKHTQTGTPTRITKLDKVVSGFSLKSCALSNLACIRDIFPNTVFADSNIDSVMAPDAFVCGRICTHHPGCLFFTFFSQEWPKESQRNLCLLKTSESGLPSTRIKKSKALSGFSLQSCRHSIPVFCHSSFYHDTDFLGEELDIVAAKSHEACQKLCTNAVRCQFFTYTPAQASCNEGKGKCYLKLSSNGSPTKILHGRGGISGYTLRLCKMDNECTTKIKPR
Sequence of Coagulation factor XI (Homo sapiens) (P03951 388-625 limits assumed): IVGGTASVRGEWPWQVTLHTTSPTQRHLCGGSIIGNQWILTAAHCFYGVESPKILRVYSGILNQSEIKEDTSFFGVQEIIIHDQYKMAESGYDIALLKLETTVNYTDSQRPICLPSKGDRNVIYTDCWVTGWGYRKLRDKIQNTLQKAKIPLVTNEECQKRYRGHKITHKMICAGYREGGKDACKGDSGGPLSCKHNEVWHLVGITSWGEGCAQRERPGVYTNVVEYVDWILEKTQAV

[7] = target: T3, Coagulation factor XII (Homo sapiens) (UniProt P00748); test: Inhibition of factor 12a (unknown origin) at IC50 using kallikrein chromogenic substrate preincubated for 1 min followed by chromogenic substrate addition and measured for 2 mins; settings: time 3.0 min
T3 sequence (whole entry): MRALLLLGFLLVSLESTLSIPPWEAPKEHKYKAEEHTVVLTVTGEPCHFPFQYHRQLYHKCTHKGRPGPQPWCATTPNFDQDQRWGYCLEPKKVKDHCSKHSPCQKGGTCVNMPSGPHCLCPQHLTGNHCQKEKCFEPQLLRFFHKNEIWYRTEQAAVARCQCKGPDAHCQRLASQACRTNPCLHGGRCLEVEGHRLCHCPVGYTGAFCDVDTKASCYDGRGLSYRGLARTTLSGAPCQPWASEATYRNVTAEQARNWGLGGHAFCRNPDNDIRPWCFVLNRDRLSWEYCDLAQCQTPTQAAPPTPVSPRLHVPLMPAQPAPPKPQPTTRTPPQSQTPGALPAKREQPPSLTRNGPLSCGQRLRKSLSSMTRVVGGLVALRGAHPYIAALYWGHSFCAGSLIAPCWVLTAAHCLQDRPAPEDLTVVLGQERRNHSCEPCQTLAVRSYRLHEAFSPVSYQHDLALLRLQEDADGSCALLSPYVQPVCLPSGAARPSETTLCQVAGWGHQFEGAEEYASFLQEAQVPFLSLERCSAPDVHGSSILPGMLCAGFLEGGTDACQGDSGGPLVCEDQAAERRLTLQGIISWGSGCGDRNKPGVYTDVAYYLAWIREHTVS

[8] = target: Prothrombin (Homo sapiens) (UniProt P00734); test: Inhibition of factor 2a (unknown origin) at IC50 preincubated for 1 min followed by chromogenic substrate addition and measured for 2 mins in presence of AT-III; settings: time 3.0 min
[9] = target: T2, Coagulation factor VII (Homo sapiens); test: Inhibition of factor 7a (unknown origin) at IC50 using pefachrome factor VIIa as substrate preincubated for 1 min followed by chromogenic substrate addition and measured for 2 mins in presence of AT-III; settings: time 3.0 min
[10] = target: Coagulation factor X (Homo sapiens) (UniProt P00742); test: Inhibition of factor 10a (unknown origin) at IC50 preincubated for 1 min followed by chromogenic substrate addition and measured for 2 mins in presence of AT-III; settings: time 3.0 min
[11] = target: Coagulation factor XI (Homo sapiens) (UniProt P03951); test: Inhibition of factor 11a (unknown origin) at IC50 using S-2366 as substrate preincubated for 1 min followed by chromogenic substrate addition and measured for 2 mins in presence of AT-III; settings: time 3.0 min
[12] = target: T3, Coagulation factor XII (Homo sapiens); test: Inhibition of factor 12a (unknown origin) at IC50 using kallikrein chromogenic substrate preincubated for 1 min followed by chromogenic substrate addition and measured for 2 mins in presence of AT-III; settings: time 3.0 min
[13] = target: Prothrombin (Homo sapiens) (UniProt P00734); test: Inhibition of factor 2a (unknown origin) at IC90 preincubated for 1 min followed by chromogenic substrate addition and measured for 2 mins in presence of AT-III; settings: time 3.0 min
[14] = target: Coagulation factor XI (Homo sapiens) (UniProt P03951); test: Inhibition of factor 11a (unknown origin) at IC90 using S-2366 as substrate preincubated for 1 min followed by chromogenic substrate addition and measured for 2 mins in presence of AT-III; settings: time 3.0 min
[15] = target: Coagulation factor X (Homo sapiens) (UniProt P00742); test: Inhibition of factor 10a (unknown origin) at IC90 preincubated for 1 min followed by chromogenic substrate addition and measured for 2 mins in presence of AT-III relative to control; settings: time 3.0 min
Plasma [16] = test: Anticoagulation activity in AT-III-deficient human plasma preincubated for 2 mins followed by APTT reagent and measured after 3 mins by coagulometric method; format: functional, cell-free; settings: time 5.0 min
Plasma [17] = test: Anticoagulation activity in HCII-deficient human plasma preincubated for 2 mins followed by APTT reagent and measured after 3 mins by coagulometric method; format: functional, cell-free; settings: time 5.0 min
Rattus norvegicus [18] = test: Antithrombotic activity in thromboplastin and stasis-induced Sprague-Dawley rat deep venous thrombosis model assessed as reduction in venous thrombosis at 2.36 mg/kg, sc administered 1 hr prior to thromboplastin addition for 20 secs followed by establishment of stasis for 20 mins; format: functional; parameters: scale not given: the % may be the effect or the level left; settings: time 80.33 min, 1.339 h
Plasma [19] = test: (§1) Anticoagulation activity in human plasma assessed as drug level causing 20 times doubling of APTT preincubated for 2 mins followed by APTT reagent and measured after 3 mins by coagulometric method relative to dHG-5; format: functional; settings: time 5 min
[20] = target: T4, Coagulation factor IX/VIII (Homo sapiens) (UniProt P00740+P00451); test: (§2) Inhibition of human citrated plasma iXase (factor 8a-factor 9a complex) preincubated for 2 mins followed by factor 10 addition and measured after 1 min by FXa chromogenic substrate SXa-11 based assay relative to dHG-5; format: protein-complex assay; settings: time 3.0 min
Coagulation factor IX [21] = target: T1, Coagulation factor IX; test: Inhibition of factor 9a (unknown origin) binding to immobilized biotinylated oHG-11 by biolayer interferometry relative to dHG-5
Rattus norvegicus [22] = test: (§3) Antithrombotic activity in thromboplastin and stasis-induced Sprague-Dawley rat deep venous thrombosis model assessed as reduction in venous thrombosis at 2.36 mg/kg, sc administered 1 hr prior to thromboplastin addition for 20 secs followed by establishment of stasis for 20 mins relative to dHG-5; format: functional; settings: time 80.33 min, 1.339 h
Plasma [23] = test: as §1, with “of APTT by measuring activity potency of oligosaccharides multiplied by the percentage of oligosaccharides in dHG-5 preincubated for” for “of APTT preincubated for”; format: functional; settings: time 5 min
[24] = target: T4, Coagulation factor IX/VIII (Homo sapiens); test: as §2, with “complex) assessed as activity potency of oligosaccharides multiplied by the percentage of oligosaccharides in dHG-5” for “complex)”; format: protein-complex assay; settings: time 3.0 min
Coagulation factor IX [25] = target: T1, Coagulation factor IX; test: Inhibition of factor 9a (unknown origin) binding to immobilized biotinylated oHG-11 assessed as activity potency of oligosaccharides multiplied by the percentage of oligosaccharides in dHG-5 by biolayer interferometry relative to dHG-5
Rattus norvegicus [26] = test: as §3, with “venous thrombosis by measuring activity potency of oligosaccharides multiplied by the percentage of oligosaccharides in dHG-5 at 2.36” for “venous thrombosis at 2.36”; format: functional; settings: time 80.33 min, 1.339 h

IC50 [1]: 17.2 nM
IC50 (Coagulation factor IX [2]): 416 nM
inhibition [3]: inactive
inhibition (active/not active) [4]: inactive
inhibition [5]: inactive
inhibition [6]: inactive
inhibition [7]: inactive
inhibition [8]: inactive
inhibition [9]: inactive
inhibition [10]: inactive
inhibition [11]: inactive
inhibition [12]: inactive
inhibition [13]: Active
inhibition [14]: Active
inhibition [15]: inactive
Ratio [20]: 81.6 U
Ratio (Coagulation factor IX [21]): 103 U
Ratio [24]: 11.1 U
Ratio (Coagulation factor IX [25]): 14.1 U
Structure (SMILES): CC(=O)N[C@H]1[C@H](O[C@@H]([C@H](O[C@@H]2O[C@@H](C)[C@@H](OS(=O)(=O)[O-])[C@@H](OS(=O)(=O)O)[C@@H]2O)[C@@H](O)CO)[C@H](O)C(=O)[O-])O[C@H](COS(=O)(=O)[O-])[C@H](OS(=O)(=O)[O-])[C@@H]1O[C@@H]1O[C@H](C(=O)[O-])[C@@H](O[C@@H]2O[C@H](COS(=O)(=O)[O-])[C@H](OS(=O)(=O)[O-])[C@H](O[C@@H]3O[C@H](C(=O)[O-])[C@@H](O[C@@H]4O[C@H](COS(=O)(=O)[O-])[C@H](OS(=O)(=O)[O-])[C@H](O[C@@H]5O[C@H](C(=O)[O-])[C@@H](O[C@@H]6O[C@H](COS(=O)(=O)[O-])[C@H](OS(=O)(=O)[O-])[C@H](O[C@@H]7O[C@H](C(=O)[O-])[C@@H](O[C@@H]8O[C@H](COS(=O)(=O)[O-])[C@H](OS(=O)(=O)[O-])[C@H](O[C@@H]9OC(C(=O)[O-])=C[C@H](O[C@@H]%10O[C@@H](C)[C@@H](OS(=O)(=O)[O-])[C@@H](OS(=O)(=O)O)[C@@H]%10O)[C@H]9O)[C@H]8NC(C)=O)[C@H](O[C@@H]8O[C@@H](C)[C@@H](OS(=O)(=O)[O-])[C@@H](OS(=O)(=O)O)[C@@H]8O)[C@H]7O)[C@H]6NC(C)=O)[C@H](O[C@@H]6O[C@@H](C)[C@@H](OS(=O)(=O)[O-])[C@@H](OS(=O)(=O)O)[C@@H]6O)[C@H]5O)[C@H]4NC(C)=O)[C@H](O[C@@H]4O[C@@H](C)[C@@H](OS(=O)(=O)[O-])[C@@H](OS(=O)(=O)O)[C@@H]4O)[C@H]3O)[C@H]2NC(C)=O)[C@H](O[C@@H]2O[C@@H](C)[C@@H](OS(=O)(=O)[O-])[C@@H](OS(=O)(=O)O)[C@@H]2O)[C@H]1O.[Na+].[Na+].[Na+].[Na+].[Na+].[Na+].[Na+].[Na+].[Na+].[Na+].[Na+].[Na+].[Na+].[Na+].[Na+].[Na+].[Na+].[Na+].[Na+].[Na+].[Na+].[Na+]
Activity (Plasma [16]): Active
Activity (Plasma [17]): Active
Activity (Rattus norvegicus [18]): 58.4%
Ratio (Plasma [19]): 104.07 U
Ratio (Rattus norvegicus [22]): 123.01 U
Ratio (Plasma [23]): 14.17 U
Ratio (Rattus norvegicus [26]): 16.73 U
